# Measurements reported in PubChem BioAssay AID2060902 (Molecular Pharmacology Branch, DTP, NCI, 2025).
# Test system: 485368-065-R3-J5-PDC spheroids with HUVEC/MSC, viability
# Test: Anticancer human tumor 485368-065-R3-J5-PDC patient-derived pancreatic carcinoma cell line growth inhibition [RAS]
# Details: for IC50: curve of first compound; for viability, T/C: stronger effect = lower value
# Excerpt: RAS pathway inhibitors in Combinations in Complex Spheroids
# A high-throughput screen of multi-cell type tumor spheroids was designed to identify active combinations of RAS pathway inhibitors and targeted small molecules. Complex spheroids include a stromal component modeled by human endothelial cells (HUVEC) and fibroblasts modeled by human mesenchymal stem cells (MSCs). The concentration ranges selected for each drug and investigational agent were based upon clinically achievable concentrations if the clinical Cmax of the agent was known.
# Compounds. The drugs and investigational agents: abemaciclib (NSC768073), cobimetinib (NSC768068), divarasib (GDC6063, NSC841802), docetaxel (NSC628503), GDC-1971 (RLY-1971, NSC841576), gemcitabine (NSC613327), inavolisib (NSC800729), ipatasertib (NSC767898), KB-0742 (NSC834161), MRTX-1133 (NSC836407), osimertinib (NSC779217), RMC-4630 (NSC839698), RMC-6236 (NSC851965), RMC-6291 (NSC852671), Ro-3306 (NSC812927), sapanisertib (NSC764658), SN-38 (NSC673596), staurosporine (NSC755774), SY5609 (NSC837396), and tovorafenib (DAY101, NSC766906), were obtained from the National Cancer Institute (NCI) Developmental Therapeutics Program Chemical Repository. The FDA-approved anticancer drug set is available from the NCI Developmental Therapeutics Program. […] The stock solutions were prepared in dimethyl sulfoxide (DMSO, Sigma-Aldrich, St. Louis, MO, cat. D2650) at 800-fold the tested concentration and stored at -70 degrees C prior to their use. All drugs and investigational agents were tested over a range starting from a high concentration at or near the clinical Cmax and decreasing in half-log increments. If the clinical Cmax for an agent had not been determined, the highest concentration tested was 10 microM.
# Cell Culture. All cells were maintained in an incubator at 37 degrees C and 5% CO2 with 95% humidity. The PDC lines were cultured according to standard operating procedures established by the NCI PDMR. All PDCs were thawed and cultured in Matrigel-coated flasks prepared with a working solution of 1X Ham's F-12 nutrient mix, without supplementation (Invitrogen, Waltham, MA, cat. 11765054), 100 U/mL penicillin-streptomycin (Invitrogen, cat. 15140122), and 2.5% Matrigel (Corning Inc., Corning, NY, cat. 354248) for the first three passages. The 362531-283-R-J2-PDC and 782815-120-R-J1-PDC lines were cultured in 6C/Colon 1B media, which includes advanced DMEM/F-12 (Thermo Fisher Scientific, cat. 12634028), 10 mM HEPES (Thermo Fisher Scientific, cat. 15630080), 1X GlutaMAX supplement (Thermo Fisher Scientific, cat. 35050061), 0.1 mg/mL primocin (InvivoGen, San Diego, CA, cat. ant-pm-2), 10% defined fetal bovine serum, heat inactivated (HyClone Laboratories Inc., Logan, UT, cat. SH30070.03HI), 50% L-WRN conditioned media (ATCC, cat. CRL-3276), 1.25 mM N-Acetyl-L-cysteine (Sigma-Aldrich, cat. A9165), 10 mM nicotinamide (Sigma-Aldrich, cat. N0636), 1X B-27 supplement (Thermo Fisher Scientific, cat. 17504044), 1X N-2 supplement (Thermo Fisher Scientific, cat. 17502048), 50 ng/mL human EGF (Thermo Fisher Scientific, cat. PHG0311), and 10 microM Y-27632 dihydrochloride (Tocris Bioscience, cat. 1254). The K12877-001-R-J1-PDC line was cultured in 6I media, which includes all 6C/Colon 1B media plus 10 ng/mL human FGF-10 (PeproTech, cat. 100-26), 1 ng/mL human FGF-2 (PeproTech, cat. 100-18B), 1 µM prostaglandin E2 (Tocris Bioscience, cat. 2296), […] hydrocortisone (Sigma-Aldrich, cat. H4001), and […] bovine insulin (Sigma-Aldrich, cat. I6634). The K86415-001-R-J1-PDC line was cultured in 6D media, which includes all 6C/Colon 1B media components minus the L-WRN conditioned media. The 485176-168-R4-J1-PDC was cultured in PANC media, which includes all 6C/Colon 1B media plus 100 ng/mL human FGF-10 (PeproTech, cat. 100-26), 500 nM SB-431542 (Selleckchem, cat. S1067), and 10 nM gastrin (Tocris Bioscience, cat. 3006). […]
# [1] = second compound 0.0316 µM, first compound 0.00316 µM
# [2] = second compound 0.0316 µM, first compound 0.01 µM
# [3] = second compound 0.0316 µM, first compound 0.0316 µM
# [4] = second compound 0.0316 µM, first compound 0.1 µM
# [5] = second compound 0.0316 µM, first compound 0.316 µM
# [6] = second compound 0.0316 µM, first compound 1 µM
# [7] = second compound 0.1 µM, first compound 0.00316 µM
# [8] = second compound 0.1 µM, first compound 0.01 µM
# [9] = second compound 0.1 µM, first compound 0.0316 µM
# [10] = second compound 0.1 µM, first compound 0.1 µM
# [11] = second compound 0.1 µM, first compound 0.316 µM
# [12] = second compound 0.1 µM, first compound 1 µM
# [13] = second compound 0.316 µM, first compound 0.00316 µM
# [14] = second compound 0.316 µM, first compound 0.01 µM
# [15] = second compound 0.316 µM, first compound 0.0316 µM
# [16] = second compound 0.316 µM, first compound 0.1 µM
# [17] = second compound 0.316 µM, first compound 0.316 µM
# [18] = second compound 0.316 µM, first compound 1 µM
# [19] = second compound 1 µM, first compound 0.00316 µM
# [20] = second compound 1 µM, first compound 0.01 µM
# [21] = second compound 1 µM, first compound 0.0316 µM
# [22] = second compound 1 µM, first compound 0.1 µM
# [23] = second compound 1 µM, first compound 0.316 µM
# [24] = second compound 1 µM, first compound 1 µM
# [25] = second compound 3.16 µM, first compound 0.00316 µM
# [26] = second compound 3.16 µM, first compound 0.01 µM
# [27] = second compound 3.16 µM, first compound 0.0316 µM
# [28] = second compound 3.16 µM, first compound 0.1 µM
# [29] = second compound 3.16 µM, first compound 0.316 µM
# [30] = second compound 3.16 µM, first compound 1 µM
# [31] = second compound 10 µM, first compound 0.00316 µM
# [32] = second compound 10 µM, first compound 0.01 µM
# [33] = second compound 10 µM, first compound 0.0316 µM
# [34] = second compound 10 µM, first compound 0.1 µM
# [35] = second compound 10 µM, first compound 0.316 µM
# [36] = second compound 10 µM, first compound 1 µM
# 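Also: spheroids exposed to agents for seven days before readout.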
smiles,measurement,setting,value
C=CC(=O)Nc1cc(Nc2nccc(-c3cn(C)c4ccccc34)n2)c(OC)cc1N(C)CCN(C)C + C#Cc1c(F)ccc2cc(O)cc(-c3ncc4c(N5CC6CCC(C5)N6)nc(OCC56CCCN5CC(F)C6)nc4c3F)c12,IC50,second compound 0.0316 µM,> 1000 nM
same,IC50,second compound 0.1 µM,> 1000 nM
same,IC50,second compound 0.316 µM,> 1000 nM
same,IC50,second compound 1 µM,> 1000 nM
same,IC50,second compound 3.16 µM,> 1000 nM
same,IC50,second compound 10 µM,< 3.16 nM
same,"viability, T/C",[1],103%
same,"viability, T/C",[2],101%
same,"viability, T/C",[3],106%
same,"viability, T/C",[4],104%
same,"viability, T/C",[5],101%
same,"viability, T/C",[6],89.7%
same,"viability, T/C",[7],97%
same,"viability, T/C",[8],95.8%
same,"viability, T/C",[9],95.8%
same,"viability, T/C",[10],108%
same,"viability, T/C",[11],108%
same,"viability, T/C",[12],96.2%
same,"viability, T/C",[13],107%
same,"viability, T/C",[14],97.3%
same,"viability, T/C",[15],96.1%
same,"viability, T/C",[16],103%
same,"viability, T/C",[17],101%
same,"viability, T/C",[18],85.5%
same,"viability, T/C",[19],106%
same,"viability, T/C",[20],98.9%
same,"viability, T/C",[21],100%
same,"viability, T/C",[22],97.3%
same,"viability, T/C",[23],83.3%
same,"viability, T/C",[24],74.6%
same,"viability, T/C",[25],78%
same,"viability, T/C",[26],83.6%
same,"viability, T/C",[27],72.4%
same,"viability, T/C",[28],67.6%
same,"viability, T/C",[29],63.3%
same,"viability, T/C",[30],49.8%
same,"viability, T/C",[31],48%
same,"viability, T/C",[32],43.7%
same,"viability, T/C",[33],37%
same,"viability, T/C",[34],37.3%
same,"viability, T/C",[35],28.6%
same,"viability, T/C",[36],30.1%
O=C(c1ccc(F)c(F)c1Nc1ccc(I)cc1F)N1CC(O)([C@@H]2CCCCN2)C1 + C#Cc1c(F)ccc2cc(O)cc(-c3ncc4c(N5CC6CCC(C5)N6)nc(OCC56CCCN5CC(F)C6)nc4c3F)c12,IC50,second compound 0.0316 µM,31.5 nM
same,IC50,second compound 0.1 µM,33.7 nM
same,IC50,second compound 0.316 µM,37.5 nM
same,IC50,second compound 1 µM,26.3 nM
same,IC50,second compound 3.16 µM,8.98 nM
same,IC50,second compound 10 µM,< 3.16 nM
same,"viability, T/C",[1],90.3%
same,"viability, T/C",[2],65.9%
same,"viability, T/C",[3],49.5%
same,"viability, T/C",[4],31.9%
same,"viability, T/C",[5],28.1%
same,"viability, T/C",[6],8.9%
same,"viability, T/C",[7],80.8%
same,"viability, T/C",[8],68.9%
same,"viability, T/C",[9],50%
same,"viability, T/C",[10],32.3%
same,"viability, T/C",[11],26%
same,"viability, T/C",[12],9.17%
same,"viability, T/C",[13],91.1%
same,"viability, T/C",[14],73%
same,"viability, T/C",[15],46.6%
same,"viability, T/C",[16],39.4%
same,"viability, T/C",[17],25.4%
same,"viability, T/C",[18],9%
same,"viability, T/C",[19],87.4%
same,"viability, T/C",[20],62%
same,"viability, T/C",[21],48.6%
same,"viability, T/C",[22],31.1%
same,"viability, T/C",[23],22.5%
same,"viability, T/C",[24],8.96%
same,"viability, T/C",[25],58.8%
same,"viability, T/C",[26],50%
same,"viability, T/C",[27],38.7%
same,"viability, T/C",[28],24%
same,"viability, T/C",[29],19.9%
same,"viability, T/C",[30],5.77%
same,"viability, T/C",[31],45.1%
same,"viability, T/C",[32],29.8%
same,"viability, T/C",[33],26.5%
same,"viability, T/C",[34],17.2%
same,"viability, T/C",[35],11.2%
same,"viability, T/C",[36],3.65%
